Results on 14 compounds are retold here after US4223041A, “Urea derivatives to treat anxiety and aggressivity” (Labaz, priority 1976, dated 1980).

Data set [1] is described as follows: "Electrically-provoked combat" test (anxiolytic action). It is filed as in vivo, mouse. The conditions noted are these: for protection against anxiety: same experimental conditions. An excerpt:
Under certain conditions, a pair of mice reacts to an electric stimulus by a series of combats which are provoked by the anxiety felt by the animals as a result of the electric shock. This anxiety is expressed by a combat with the other animal which is rendered responsible. For this reason, the test described hereunder can be considered as a means of evaluating the anxiolytic action of a compound. Two mice which have been previously on a diet consisting only of water are placed together in a cage. They are then submitted to a series of electric impulses of an intensity varying between 40 and 80 volts according to the sensitivity of the animals. The test is first carried out with untreated animals as controls and then with the same animals treated 30 minutes before the test with a dose of the compound to be studied.
Note is taken on the number of combats engaged. The results are expressed in percentage of decrease in the number of combats engaged by the treated animals in comparison with the number of combats registered before treatment.

The nature of data set [2]: rota rod test (neurotoxicity). The note with it: for % of failures in rota rod test: mice, 30 min after administration; for Rota rod (% of failures): comparison at 25%-protection dose of four plates test. It is filed as in vivo, mouse. The procedure: The test used was that known as the rota rod test described by BOISSIER (Therapie 1958 XIII pp. 1074-1118).
This test aims at determining the ability of mice to coordinate their movements by seeing to what extent they can remain on a roller turning at a rate of 4 revolutions per minute for two minutes. The trial was carried out thirty minutes after administration by oral route of the compound to be studied and the percentage of failures was noted.
The value of this test is twofold. Failure on the part of the animals gives a very early indication of the slightest damage to the meuromuscular functions which cannot be discerned by any other means. Secondly, this test serves as an element of comparison for drawing up index figures involving the results obtained with other tests.
In general terms: In the rotarod test animals must keep their balance on a rotating rod.

Data set [3] can be described thus: Four plates test (anxiolytic action). It is filed as in vivo, mouse. The note with it: for positive result in four plates test without sedative effect: at ED25 of four plates test; for ED25: po, read-out: ED25 in the four plates test (dose which offers 25%-protection against anxiety). The source says: This test, which is specific to the anxiolytics, was undertaken with the mouse, thirty minutes after the oral administration of the compound to be studied.
It consists in placing mice in a box with fairly high walls, of which the bottom comprises four square plates. These plates, which all have the same dimensions, are separated from each other by a central axis and are alternately electrified by the positive and negative poles of a source of electric current. There is a space of a few millimeters between adjacent plates.
The mouse placed in this apparatus explores it and thus passes over the different plates in succession. Note is taken of the number of times each animal passes over the plates during one minute. When the current is switched on, the mouse passing over the plates receives an electric shock (80 V), which provokes a gradual decrease in the exploratory movements, and finally brings the animals to a complete stop.
Anxiolytic agents enable the animals to become more or less indifferent to the electric shock.
The percentage of protection against anxiety given by compounds of the invention was calculated by comparing the number of times the control animals passed over the plates when electrified with the number of times the treated animals passed over the electrified plates.

Data set [4] in a line: Action on the pentylenetetrazole-induced seizure (anticonvulsant activity). It is filed as in vivo, mouse. The procedure:
The purpose of this test which is carried out on mice is to determine whether the compounds of the invention, when given preventively by oral route, are capable at certain doses of protecting some of the animals against the epileptic seizure produced by a predetermined dose of pentylenetetrazole which would be 100% fatal in the absence of the compound.
The compound to be studied was administered fifteen minutes before an injection of 125 mg/kg of pentylenetetrazole and note was taken of the number of deaths occurring during the three hours following this injection. The results were expressed in percentage of protection of the animals against death at the dose studied.

Data set [5] can be described thus: Aggressivity of the isolated mouse (antiaggressive activity). The class given is in vivo. The source says: If a male mouse is isolated in a cage for three to four weeks, it will spontaneously attack any other animal of the same species which is placed in the same cage.
Mice wer isolated for the period of time required to render them spontaneously aggressive. Two mice, one rendered aggressive and one in a normal non-aggressive state, were then placed together and note was taken of the number of attacks by the aggressive mouse which occurred over a period of three minutes.
Each batch was composed of five pairs of animals.
The aggressive animals of each batch were then treated by oral route with the compound to be studied which was administered in such a way that the aggressive animals of each batch received a higher dose than those of the preceding batch.
Thirty minutes after administration, the couples were placed together again for a further three minutes and the number of attacks noted.

The nature of data set [6]: spontaneous motoricity in the mouse. The note with it: for Spontaneous motoricity (% of decrease): comparison at 25%-protection dose of four plates test. The class given is in vivo. The source says: This test is described in U.S. Pat. No. 3,929,869.
Where [7] appears, read: Mus musculus, po, 3 h, read-out: % of protection against death.
The mark [8] stands for this setting: Mus musculus, 0.5 h, mice, 30 min before test, read-out: % of decrease in number of combats.
Setting [9] is: at the dose which provokes a 60%-decrease in the number of combats.

Each structure is given as a SMILES string.

For `C#CCNC(=O)NC(CCC)(CCC)CCC` [Compound M, 1-(1,1-Di-n-propyl-n-butyl)-3-(2-propynyl)-urea], the inhibition in vivo at 254 mg/kg in data set [1] (Mus musculus, 0.5 h, 254 mg/kg, mice, 30 min before test, read-out: % of decrease in number of combats) was 56%. For the same compound, the “% of failures in rota rod test” value in data set [2] (635 mg/kg oral) was 0%.
Regarding `CCCCC(C)(CC)NC(N)=O` (stereo not drawn) [Compound G, 1-(1-Methyl-1-ethyl-pentyl)-urea], in data set [3] (0.5 h, 282 mg/kg oral, mouse, 30 min after administration, read-out: % of protection against anxiety), the inhibition in vivo at 282 mg/kg turned out to be 18%. For the same compound, in data set [4] (setting [7]), the responders at 188 mg/kg came out at 20%. Also, in data set [1] (Mus musculus, 0.5 h, 94 mg/kg, mice, 30 min before test, read-out: % of decrease in number of combats), the inhibition in vivo at 94 mg/kg was found to be 48%.
On to `CCCCC(CCCC)(CCCC)NC(N)=O` [Compound J, 1-(1,1-Di-n-butyl-n-pentyl)-urea], for which the inhibition in vivo at 200 mg/kg in data set [1] (setting [8]) worked out at 67%. Also, the “% of failures in rota rod test” value in data set [2] (500 mg/kg oral) is 0%.
Consider `CCCC(CCC)(CC(C)C)NC(N)=O` [Compound P, 1-(1,1-Di-n-propyl-3-methyl-n-butyl)-urea], for which the inhibition in vivo at 460 mg/kg in data set [1] (Mus musculus, 0.5 h, 460 mg/kg, mice, 30 min before test, read-out: % of decrease in number of combats) was 31%. Moreover, in data set [2] (690 mg/kg oral), the “% of failures in rota rod test” value amounted to 0%.
Take `CCC(CC)(CC)NC(N)=O` [Compound F, 1-(1,1-Diethyl-n-propyl)-urea]: in data set [3] (0.5 h, 175 mg/kg oral, mouse, 30 min after administration, read-out: % of protection against anxiety), the inhibition in vivo at 175 mg/kg stood at 16%. In data set [4] (setting [7]), the responders at 150 mg/kg was 50%. In addition, the inhibition in vivo at 82 mg/kg in data set [1] (Mus musculus, 0.5 h, 82 mg/kg, mice, 30 min before test, read-out: % of decrease in number of combats) was found to be 50%.
As for `CN1C(=O)CN=C(c2ccccc2)c2cc(Cl)ccc21` [diazepam, reference compound], the sedative effects entry in data set [5] (8 mg/kg) is recorded as “strongly sedative”. Also, in data set [5] (8 mg/kg (strongly sedative), isolated mouse), the “reduction in the number of attacks” value is recorded as 38%. The “activity in the isolated mouse test” value in data set [5] (doses active in four plates and electrically-provoked combat tests) was “devoid of activity”. Besides, in data set [5] (up to 4 mg/kg, isolated mouse), the antiaggressive effect entry was “no results”. Moreover, the “Spontaneous motoricity (% of decrease)” value in data set [6] (2 mg/kg) amounted to 57%. Besides, the “decrease in spontaneous motoricity at dose giving 80% reduction in combats” value in data set [6] (dose producing 80% decrease in the number of combats) was found to be 40%. The “positive result in four plates test without sedative effect” value in data set [3] is recorded as “impossible”. The ED25 in data set [3] (0.5 h, mouse) was found to be 2 mg/kg. Also, in data set [3] (sedative effects too intense above 2 mg/kg), the “ED50 in the four plates test” value is listed as “not possible to obtain a ED50”. This compound also registered a protection against anxiety in data set [1] (0.69 mg/kg) of 50%. The “decrease in number of combats obtainable without altering spontaneous motoricity” value in data set [1] (mice, without action on spontaneous motoricity) was at most 15%. In addition, the “failures in the rota rod test” value in data set [2] (setting [9]) is on record as 12%. Moreover, the “Rota rod (% of failures)” value in data set [2] (2 mg/kg) is on record as 35%.
For `CCCC(CCC)(CCC)NC(=O)N(C)C` [Compound I, 1-(1,1-Di-n-propyl-n-butyl)-3,3-dimethyl-urea], the inhibition in vivo at 350 mg/kg in data set [3] (0.5 h, 350 mg/kg oral, mouse, 30 min after administration, read-out: % of protection against anxiety) is 29%. In addition, the inhibition in vivo at 200 mg/kg in data set [1] (setting [8]) worked out at 55%.
Take `CCC#CC(CCC)(CCC)NC(N)=O` [Compound B, 1-(1,1-Di-n-propyl-2-pentynyl)-urea]: the inhibition in vivo at 56.5 mg/kg in data set [1] (Mus musculus, 0.5 h, 56.5 mg/kg, mice, 30 min before test, read-out: % of decrease in number of combats) worked out at 52%.
In the case of `CCCC(CCC)(CCC)NC(=O)NC` [Compound K, 1-(1,1-Di-n-propyl-n-butyl)-3-methyl-urea], the inhibition in vivo at 300 mg/kg in data set [3] (0.5 h, 300 mg/kg oral, mouse, 30 min after administration, read-out: % of protection against anxiety) came to 25%. The ED25 in data set [3] (0.5 h, mouse) amounted to 300 mg/kg. Moreover, the responders at 200 mg/kg in data set [4] (Mus musculus, 3 h, 200 mg/kg oral, mice, 15 min before 125 mg/kg pentylenetetrazole, read-out: % of protection against death) came out at 30%. In addition, the inhibition in vivo at 200 mg/kg in data set [1] (setting [8]) came out at 42%. Also, the “failures in the rota rod test” value in data set [2] (300 mg/kg oral, mouse (ED25 in four plates test)) is given as “no failures”. In addition, the “% of failures in rota rod test” value in data set [2] (600 mg/kg oral) came out at 0%. Further, the “sedative effect relative to reference products” value in data set [2] (at ED25 of four plates test) is “much less sedative than diazepam and meprobamate”.
For the compound `CC#CC(CCC)(CCC)NC(N)=O` [Compound D, 1-(1,1-Di-n-propyl-2-butynyl)-urea], the responders at 80.5 mg/kg in data set [4] (setting [7]) was determined as 50%. The “anticonvulsant activity (in words)” value in data set [4] (pentylenetetrazole-induced seizure, mice, oral) was “considerable”. Further, in data set [1] (Mus musculus, 0.5 h, 74 mg/kg, mice, 30 min before test, read-out: % of decrease in number of combats), the inhibition in vivo at 74 mg/kg was determined as 50%. In addition, the “% of failures in rota rod test” value in data set [2] (250 mg/kg oral) is 50%.
Broadly, the ED50 is the midpoint of the dose-response relation. Take `CCCC(C)(COC(N)=O)COC(N)=O` [meprobamate, reference compound]: the “sedative effects at antiaggressive dose” value in data set [5] (170 mg/kg) was “considerable”. For the same compound, the ED50 in data set [5] (0.5 h, oral, isolated mouse, 30 min after administration, read-out: ED50 (50% fewer attacks)) was determined as 170 mg/kg. Further, the “Spontaneous motoricity (% of decrease)” value in data set [6] (79 mg/kg) was determined as 11%. Further, in data set [3], the “positive result in four plates test without sedative effect” value is on record as “impossible”. In addition, in data set [3] (0.5 h, mouse), the ED25 is 79 mg/kg. In data set [1] (70 mg/kg), this compound had a protection against anxiety of 50%. Also, the “rota rod test effect” value in data set [2] (170 mg/kg (ED50 in isolated mouse test)) came to 75%. In data set [2] (setting [9]), the “failures in the rota rod test” value was 35%. The “Rota rod (% of failures)” value in data set [2] (79 mg/kg) is recorded as 30%.
`C=CCC(CCC)(CCC)NC(=O)NC` [Compound L, 1-(1,1-Di-n-propyl-3-butenyl)-3-methyl-urea]: in data set [1] (Mus musculus, 0.5 h, 228 mg/kg, mice, 30 min before test, read-out: % of decrease in number of combats), the inhibition in vivo at 228 mg/kg turned out to be 53%.
Regarding `C=CCNC(=O)NC(CCC)(CCC)CCC` [Compound N, 1-(1,1-Di-n-propyl-n-butyl)-3-(2-propenyl)-urea], in data set [4] (Mus musculus, 3 h, 240 mg/kg oral, mice, 15 min before 125 mg/kg pentylenetetrazole, read-out: % of protection against death), the responders at 240 mg/kg amounted to 20%. Also, the inhibition in vivo at 360 mg/kg in data set [1] (Mus musculus, 0.5 h, 360 mg/kg, mice, 30 min before test, read-out: % of decrease in number of combats) was 30%. For the same compound, in data set [2] (720 mg/kg oral), the “% of failures in rota rod test” value is 0%.
For `CCCC(CCC)(NC(N)=O)C(C)C` [Compound H, 1-(1-n-Propyl-1-isopropyl-n-butyl)-urea], the inhibition in vivo at 250 mg/kg in data set [3] (0.5 h, 250 mg/kg oral, mouse, 30 min after administration, read-out: % of protection against anxiety) came out at 39%. The inhibition in vivo at 110 mg/kg in data set [1] (Mus musculus, 0.5 h, 110 mg/kg, mice, 30 min before test, read-out: % of decrease in number of combats) was found to be 50%.
